Source: EPA's ToxRefDB 2

What was measured:
mouse [1] = conditions: Subchronic oral toxicity in rodents, b6c3f1, Feed, dose end: 13 week, group: systemic
mouse [2] = conditions: Subchronic oral toxicity in rodents, b6c3f1, Feed, dose end: 90 day, group: systemic
rat [3] = conditions: Subchronic oral toxicity in rodents, fischer, Feed, dose end: 13 week, group: systemic
mouse [4] = conditions: Carcinogenicity, b6c3f1, Oral, Feed, dose end: 103 week, group: systemic
rat [5] = conditions: Subchronic oral toxicity in rodents, fischer, Feed, dose end: 90 day, group: systemic, systemic / in life observation / body weight / body weight gain + systemic / pathology microscopic / kidney / calculus + systemic / …
rat [6] = conditions: Carcinogenicity, fischer, Oral, Feed, dose end: 103 week, group: systemic
rat [7] = conditions: Subchronic oral toxicity in rodents, other, Feed, dose end: 90 day, group: systemic
rat [8] = conditions: Carcinogenicity, fischer, Oral, Feed, dose end: 78 week, group: systemic
mouse [9] = conditions: Carcinogenicity, b6c3f1, Oral, Feed, dose end: 78 week, group: systemic
rat [10] = conditions: Prenatal developmental toxicity study; sprague dawley; Oral; Gavage/Intubation; dose end: 15 GD; group: maternal; systemic / in life observation / body weight / body weight gain
mouse [11] = conditions: Carcinogenicity; b6c3f1; Oral; Gavage/Intubation; dose end: 2 year; group: systemic; systemic / in life observation / body weight / body weight + systemic / in life observation / clinical signs / [other] + systemic / in life …
rat [12] = conditions: Subchronic oral toxicity in rodents, fischer, Gavage/Intubation, dose end: 13 week, group: systemic
rat [13] = conditions: Combined chronic toxicity/carcinogenicity; fischer; Oral; Gavage/Intubation; dose end: 2 year; group: systemic; systemic / in life observation / clinical signs / ataxia + systemic / in life observation / clinical signs / prostration + systemic / in …
mouse [14] = conditions: Subchronic oral toxicity in rodents, b6c3f1, Gavage/Intubation, dose end: 13 week, group: systemic
rat [15] = conditions: Multigenerational reproductive toxicity study, sprague dawley, Oral, Water, dose end: 2 generation, group: parental
rat [16] = conditions: Developmental neurotoxicity study, sprague dawley, Inhalation, Whole-Body, dose end: 2 generation, group: cannot be grouped
[17] = systemic / in life observation / body weight / body weight + systemic / in life observation / body weight / body weight gain + systemic / in…
[18] = systemic / in life observation / body weight / body weight gain
[19] = systemic / in life observation / body weight / body weight gain + systemic / pathology microscopic / thyroid gland / hyperplasia + systemic…
[20] = systemic / pathology microscopic / thyroid gland / hyperplasia
[21] = systemic / in life observation / body weight / body weight gain + systemic / pathology microscopic / harderian gland / adenoma + systemic / …
[22] = systemic / in life observation / body weight / body weight gain + systemic / pathology gross / thyroid gland / enlarged
[23] = systemic / in life observation / body weight / body weight gain + systemic / pathology gross / thyroid gland / enlarged + systemic / …
[24] = systemic / hematology / erythrocyte (rbc) count differential / erythrocyte (rbc) + systemic / hematology / hemoglobin (hgb) / hemoglobin (…
[25] = systemic / in life observation / body weight / body weight
[26] = systemic / in life observation / body weight / body weight + systemic / pathology microscopic / liver / adenoma/carcinoma combined + …
[27] = systemic / in life observation / clinical signs / tremors + systemic / in life observation / mortality / mortality + systemic / organ weight…
[28] = systemic / organ weight / adrenal gland / absolute + systemic / organ weight / adrenal gland / relative to body weight
[29] = systemic / organ weight / adrenal gland / absolute + systemic / organ weight / adrenal gland / relative to body weight + systemic / in life …
[30] = systemic / in life observation / body weight / body weight gain + systemic / in life observation / water consumption / water consumption + …

Compound: Nc1ccc(Oc2ccc(N)cc2)cc1 [4,4'-Oxydianiline]
- LOAEL (mouse [1]; [17]): > 557 mg/kg/day
- NEL (mouse [1]; [17]): 68 mg/kg/day
- NOAEL (mouse [1]; [17]): ≥ 557 mg/kg/day
- LEL (mouse [1]; systemic / in life observation / body weight / body weight + systemic / in life observation / body weight / body weight gain + systemic / …): 138 mg/kg/day
- LEL (mouse [2]; [18]): 45 mg/kg/day
- NEL (mouse [2]; [18]): < 45 mg/kg/day
- LOAEL (mouse [2]; [19]): 90 mg/kg/day
- NOAEL (mouse [2]; [19]): 45 mg/kg/day
- LOAEL (rat [3]; [17]): > 168 mg/kg/day
- NOAEL (rat [3]; [17]): ≥ 168 mg/kg/day
- LEL (rat [3]; [20]): 27 mg/kg/day
- NEL (rat [3]; [20]): < 27 mg/kg/day
- LOAEL (mouse [4]; [18]): 22.5 mg/kg/day
- NOAEL (mouse [4]; [18]): < 22.5 mg/kg/day
- LEL (mouse [4]; [21]): 22.5 mg/kg/day
- NEL (mouse [4]; [21]): < 22.5 mg/kg/day
- LEL (rat [5]): 30 mg/kg/day
- LOAEL (rat [5]): 30 mg/kg/day
- NEL (rat [5]): 15 mg/kg/day
- NOAEL (rat [5]): 15 mg/kg/day
- LOAEL (rat [6]; [22]): 10 mg/kg/day
- NOAEL (rat [6]; [22]): < 10 mg/kg/day
- LEL (rat [6]; [23]): 10 mg/kg/day
- NEL (rat [6]; [23]): < 10 mg/kg/day

Compound: CNc1ccccc1C(=O)OC [Methyl 2-(methylamino)benzoate]
- LOAEL (rat [7]; [24]): > 244 mg/kg/day
- NEL (rat [7]; [24]): 21 mg/kg/day
- NOAEL (rat [7]; [24]): ≥ 244 mg/kg/day
- LEL (rat [7]; systemic / hematology / leukocyte (wbc) count differential / leukocyte (wbc) + systemic / organ weight / kidney / absolute + systemic / …): 82 mg/kg/day

Compound: CN(C)c1ccc(C(=O)c2ccc(N(C)C)cc2)cc1 [Michler's ketone]
- LOAEL (rat [8]; [25]): 12.5 mg/kg/day
- NOAEL (rat [8]; [25]): < 12.5 mg/kg/day
- LEL (rat [8]; [26]): 12.5 mg/kg/day
- NEL (rat [8]; [26]): < 12.5 mg/kg/day
- LOAEL (mouse [9]; [25]): 188 mg/kg/day
- NOAEL (mouse [9]; [25]): < 188 mg/kg/day
- LEL (mouse [9]; [26]): 188 mg/kg/day
- NEL (mouse [9]; [26]): < 188 mg/kg/day

Compound: Oc1cccc(O)c1 [Resorcinol]
- LEL (rat [10]): 500 mg/kg/day
- LOAEL (rat [10]): > 500 mg/kg/day
- NEL (rat [10]): 250 mg/kg/day
- NOAEL (rat [10]): ≥ 500 mg/kg/day
- LEL (mouse [11]): 225 mg/kg/day
- LOAEL (mouse [11]): 225 mg/kg/day
- NEL (mouse [11]): 112 mg/kg/day
- NOAEL (mouse [11]): 112 mg/kg/day
- LOAEL (rat [12]; [27]): > 520 mg/kg/day
- NOAEL (rat [12]; [27]): ≥ 520 mg/kg/day
- LEL (rat [12]; [28]): 32 mg/kg/day
- NEL (rat [12]; [28]): < 32 mg/kg/day
- LEL (rat [13]): 100 mg/kg/day
- LOAEL (rat [13]): 100 mg/kg/day
- NEL (rat [13]): 50 mg/kg/day
- NOAEL (rat [13]): 50 mg/kg/day
- LEL (mouse [14]; [28]): 28 mg/kg/day
- NEL (mouse [14]; [28]): < 28 mg/kg/day
- LOAEL (mouse [14]; [29]): > 420 mg/kg/day
- NOAEL (mouse [14]; [29]): ≥ 420 mg/kg/day
- LOAEL (rat [15]; [30]): > 233 mg/kg/day
- NEL (rat [15]; [30]): 31 mg/kg/day
- NOAEL (rat [15]; [30]): ≥ 233 mg/kg/day
- LEL (rat [15]; systemic / in life observation / water consumption / water consumption): 86 mg/kg/day

Compound: C=Cc1ccccc1 [Styrene]
- LEL (rat [16]; systemic / in life observation / body weight / body weight gain + systemic / in life observation / body weight / offspring (pup) weight): 150 ppm
- NEL (rat [16]; systemic / in life observation / body weight / body weight gain + systemic / in life observation / water consumption / water consumption): 50 ppm
- LOAEL (rat [16]; [30]): > 500 ppm
- NOAEL (rat [16]; [30]): ≥ 500 ppm
